According to ChEMBL document CHEMBL1151269, “Caucanolides A-F, unusual antiplasmodial constituents from a colombian collection of the gorgonian coral Pseudopterogorgia bipinnata” (J Nat Prod, 2005):
In brackets after ≈: the same amount, converted by molar mass.

Experiments:
Plasmodium falciparum = assay: Antiplasmodial activity against chloroquine-resistant Plasmodium falciparum W2; type: functional, organism-based
T47D = assay: Cytotoxicity against human T47D cells; type: functional, cell-based
CCRF-CEM = assay: Cytotoxicity against human CCRF-CEM cells; type: functional, cell-based
[1] = tested on: Mycobacterium tuberculosis; assay: Antibacterial activity against Mycobacterium tuberculosis H37Rv at 6.25 ug/ml; type: functional
NCI-H460 = assay: Cytotoxicity against human NCI-H460 cells; type: functional, cell-based
MCF7 = assay: Cytotoxicity against human MCF7 cells; type: functional, cell-based

SMILES | IC50 (Plasmodium falciparum) [µg/mL] | other results
CO[C@](C)(/C=C1/C=C(C)C(=O)O1)C[C@@H]1C=C(CCC(C=O)=C(C)C)C(=O)O1 [CAUCANOLIDE F] | ≥ 50 | 
C=C(C)[C@H]([C@@H]1C=C(CCC(C=O)=C(C)C)C(=O)O1)[C@@]1(OC)C=C(C)C(=O)O1 [CAUCANOLIDE A] | 17 (≈ 45.4 µM) | IC50 (T47D): 25.8 µg/mL (≈ 68.9 µM); IC50 (CCRF-CEM): 25.5 µg/mL (≈ 68.1 µM); Activity [1]: 21%; IC50 (NCI-H460): 12.5 µg/mL (≈ 33.4 µM); IC50 (MCF7): 7.6 µg/mL (≈ 20.3 µM)
CO[C@]1(/C=C(\C)C[C@@H]2C=C(CCC(C=O)=C(C)C)C(=O)O2)C=C(C)C(=O)O1 [CAUCANOLIDE D] | 15 (≈ 40.1 µM) | 
C=C(C)[C@H]([C@@H]1C=C(CCC(C(=O)/N=C/N(C)C)=C(C)C)C(=O)O1)[C@@]1(OC)C=C(C)C(=O)O1 [CAUCANOLIDE B] | ≥ 50 | 
CO[C@@]1([C@H]2[C@@H](O)C=C(CCC(C=O)=C(C)C)C(=O)OC2(C)C)C=C(C)C(=O)O1 [CAUCANOLIDE C] | ≥ 50 | 
CO[C@@](C)(/C=C1/C=C(C)C(=O)O1)C[C@@H]1C=C(CCC(C=O)=C(C)C)C(=O)O1 [CAUCANOLIDE E] | ≥ 50 | 
